# Measured values published in paper PMC8268887, “Peptide/β-Peptoid Hybrids with Ultrashort PEG-Like Moieties: Effects on Hydrophobicity, Antibacterial Activity and Hemolytic Properties” (International Journal of Molecular Sciences, 2021).
# Like-named read-outs stand apart in the source and are kept apart here.
# Assays:
# S. aureus ATCC 29213 = format: cell-based, Staphylococcus aureus; details: ATCC 29213, 20 h
# How it was run: (§1)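 Minimum inhibitory concentrations were recorded following 20 h of incubation with shaking at 35 °C (±2 °C), using ~5 × 10^5 CFU/mL in Mg^2+/Ca^2+-supplemented (4 mg/L each) Mueller-Hinton broth.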
# [1] = Hydrophobicity by retention in analytical RP-HPLC (% MeCN at peak elution); format: physicochemical; details: for % MeCN at Elution, Aeris Peptide: Phenomenex Aeris Peptide XB-C18 column; for % MeCN at Elution, Aeris Peptide / % MeCN at Elution, Luna Omega / % MeCN at Elution, Supelco Discovery: gradient 0→60% B during 15 min; for % MeCN at Elution, Luna: Phenomenex Luna C18(2) column, RP-HPLC gradient 0→60% B during 15 min, relative hydrophobicity; for % MeCN at Elution, Luna Omega: Phenomenex Luna Omega Polar C18 column; for % MeCN at Elution, Supelco Discovery: Supelco Discovery BIO Wide pore C18 column
# How it was run: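 Retention times measured on four C18 columns (Luna C18(2), Luna Omega Polar C18, Aeris Peptide XB-C18, Discovery BIO Wide pore) with MeCN–H2O/0.1% TFA, linear 0–60% B over 15 min, 0.8 mL/min, UV 220 nm. % MeCN at elution = 0.95(0.6Rt/15 min)+0.05(1−0.6Rt/15 min).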
# E. coli NMI 3371/16 = format: cell-based, Escherichia coli; details: NMI 3371/16, 20 h
# How it was run: as §1
# E. coli NMI 3898/15 = format: cell-based, Escherichia coli; details: NMI 3898/15, 20 h
# How it was run: as §1
# E. coli ATCC 25922 = format: cell-based, Escherichia coli; details: ATCC 25922, 20 h
# How it was run: as §1
# [2] = Determination of hemolytic activity; format: cell-based; details: red blood cell suspension in PBS buffer, human red blood cells at 400 µg/mL, 37 °C
# How it was run: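 Fresh human RBCs, PBS-washed, used as 1% suspension with compound at 400 μg/mL final for 60 min at 37 °C with mild agitation, triplicate wells. Released hemoglobin read at OD 405 nm in supernatant; % hemolysis normalized to 1% SDS (100%) and PBS (0%), averages reported.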
# K. pneumoniae ATCC 13883 = format: cell-based
# How it was run: as §1
# E. faecalis ATCC 29212 = format: cell-based; details: ATCC 29212, 20 h
# How it was run: as §1
# A. baumannii NMI 3658/17 = format: cell-based, Acinetobacter baumannii; details: NMI 3658/17, 20 h
# How it was run: as §1
# A. baumannii ATCC 19606 = format: cell-based, Acinetobacter baumannii; details: ATCC 19606, 20 h
# How it was run: as §1
"MIC, SA (S. aureus ATCC 29213) [µg/mL]","% MeCN at Elution, Aeris Peptide [1] [% MeCN]","% MeCN at Elution, Luna [1] [% MeCN]","% MeCN at Elution, Luna Omega [1] [% MeCN]","% MeCN at Elution, Supelco Discovery [1] [% MeCN]","MIC, E. coli NMI 3371/16 (E. coli NMI 3371/16) [µg/mL]","MIC, E. coli NMI 3898/15 (E. coli NMI 3898/15) [µg/mL]","MIC, EC (E. coli ATCC 25922) [µg/mL]","MIC, KP (K. pneumoniae ATCC 13883; ATCC 13883, 20 h) [µg/mL]","MIC, EF (E. faecalis ATCC 29212) [µg/mL]","MIC, A. baumannii NMI 3658/17 (A. baumannii NMI 3658/17) [µg/mL]","MIC, AB (A. baumannii ATCC 19606) [µg/mL]","MIC, KP (K. pneumoniae ATCC 13883)",MIC against E. coli (E. coli ATCC 25922) [µM],SMILES,hemolysis at 60 min [2] [%]
>64,39.9,41.9,42.8,42.1,8,16,8 to 16,>64,>64,16,8 to 16,,,"NCCCC[C@H](NC(=O)CCN(Cc1ccc(F)cc1)C(=O)[C@H](CCCCN)NC(=O)CCN(Cc1ccc(F)cc1)C(=O)[C@H](CCCCN)NC(=O)COCCOCCOCCN)C(=O)N(CCC(=O)NCCOCCOCCOCC(=O)N[C@@H](CCCCN)C(=O)N(CCC(=O)N[C@@H](CCCCN)C(=O)N(CCC(=O)N[C@@H](CCCCN)C(=O)N(CCC(=O)NCCOCCOCCOCC(N)=O)Cc1ccc(F)cc1)Cc1ccc(F)cc1)Cc1ccc(F)cc1)Cc1ccc(F)cc1 [Compound 13, H-sPEG3-[X]3-sPEG3-[X]3-sPEG3-NH2]",7.8
>64,40.4,42.4,43.5,42.5,16,32,16,>64,>64,32,16,,,"NCCCC[C@H](NC(=O)CCN(Cc1ccc(F)cc1)C(=O)[C@H](CCCCN)NC(=O)CCN(Cc1ccc(F)cc1)C(=O)[C@H](CCCCN)NC(=O)CCOCCOCCOCCOCCN)C(=O)N(CCC(=O)NCCOCCOCCOCCOCCC(=O)N[C@@H](CCCCN)C(=O)N(CCC(=O)N[C@@H](CCCCN)C(=O)N(CCC(=O)N[C@@H](CCCCN)C(=O)N(CCC(=O)NCCOCCOCCOCCOCCC(N)=O)Cc1ccc(F)cc1)Cc1ccc(F)cc1)Cc1ccc(F)cc1)Cc1ccc(F)cc1 [Compound 14, H-sPEG4-[X]3-sPEG4-[X]3-sPEG4-NH2]",9
>64,39.0,41.1,41.4,41.2,4,8,4,,>64,4,8,64–>64,,"NCCCC[C@H](NC(=O)CCN(Cc1ccc(F)cc1)C(=O)[C@H](CCCCN)NC(=O)COCCNC(=O)CCN(Cc1ccc(F)cc1)C(=O)[C@H](CCCCN)NC(=O)CCN(Cc1ccc(F)cc1)C(=O)[C@H](CCCCN)NC(=O)COCCNC(=O)CCN(Cc1ccc(F)cc1)C(=O)[C@H](CCCCN)NC(=O)CCN(Cc1ccc(F)cc1)C(=O)[C@@H](N)CCCCN)C(=O)N(CCC(N)=O)Cc1ccc(F)cc1 [Compound 15, H-[X]2-sPEG1-[X]2-sPEG1-[X]2-NH2]",4.8
32 to 64,39.4,41.5,41.9,41.6,4,8,2 to 4,64,>64,4,8,,0.7 to 1.4,"NCCCC[C@H](NC(=O)CCN(Cc1ccc(F)cc1)C(=O)[C@H](CCCCN)NC(=O)COCCOCCNC(=O)CCN(Cc1ccc(F)cc1)C(=O)[C@H](CCCCN)NC(=O)CCN(Cc1ccc(F)cc1)C(=O)[C@H](CCCCN)NC(=O)COCCOCCNC(=O)CCN(Cc1ccc(F)cc1)C(=O)[C@H](CCCCN)NC(=O)CCN(Cc1ccc(F)cc1)C(=O)[C@@H](N)CCCCN)C(=O)N(CCC(N)=O)Cc1ccc(F)cc1 [Compound 16, H-[X]2-sPEG2-[X]2-sPEG2-[X]2-NH2]",5.7
